According to ChEMBL document CHEMBL5226360, “Pseudoprolines as stereoelectronically tunable proline isosteres” (Bioorg Med Chem Lett, 2022):
Starred links: 1 amine or outer side, 2 acyl side, 3 side chain; linkers in the order of their positions; H or OH if unused. Non-standard residues stand in square brackets, D forms with d. Residues, ends and D or L forms follow the SMILES beside them. X4 = O=C1C[C@](Cc2ccc(O)cc2)(N[*:1])[C@H]2SC[C@@H](C(=O)[*:2])N12; X1 = CC1(C)SC[C@@H](C(=O)[*:2])N1[*:1]; X2 = CC1(C)OC[C@@H](C(=O)[*:2])N1[*:1]

Columns and labels:
[1] = Half life in rat at 2 mg/kg, po; format: ADME, organism-based; details: in vivo
[2] = Oral bioavailability in rat at 2 mg/kg; format: ADME, organism-based; details: in vivo
Dipeptidyl peptidase 4 = Dipeptidyl peptidase 4 (Homo sapiens, UniProt P27487); assay: Inhibition of DPP4 (unknown origin)
Sequence of Dipeptidyl peptidase 4 (P27487 whole entry): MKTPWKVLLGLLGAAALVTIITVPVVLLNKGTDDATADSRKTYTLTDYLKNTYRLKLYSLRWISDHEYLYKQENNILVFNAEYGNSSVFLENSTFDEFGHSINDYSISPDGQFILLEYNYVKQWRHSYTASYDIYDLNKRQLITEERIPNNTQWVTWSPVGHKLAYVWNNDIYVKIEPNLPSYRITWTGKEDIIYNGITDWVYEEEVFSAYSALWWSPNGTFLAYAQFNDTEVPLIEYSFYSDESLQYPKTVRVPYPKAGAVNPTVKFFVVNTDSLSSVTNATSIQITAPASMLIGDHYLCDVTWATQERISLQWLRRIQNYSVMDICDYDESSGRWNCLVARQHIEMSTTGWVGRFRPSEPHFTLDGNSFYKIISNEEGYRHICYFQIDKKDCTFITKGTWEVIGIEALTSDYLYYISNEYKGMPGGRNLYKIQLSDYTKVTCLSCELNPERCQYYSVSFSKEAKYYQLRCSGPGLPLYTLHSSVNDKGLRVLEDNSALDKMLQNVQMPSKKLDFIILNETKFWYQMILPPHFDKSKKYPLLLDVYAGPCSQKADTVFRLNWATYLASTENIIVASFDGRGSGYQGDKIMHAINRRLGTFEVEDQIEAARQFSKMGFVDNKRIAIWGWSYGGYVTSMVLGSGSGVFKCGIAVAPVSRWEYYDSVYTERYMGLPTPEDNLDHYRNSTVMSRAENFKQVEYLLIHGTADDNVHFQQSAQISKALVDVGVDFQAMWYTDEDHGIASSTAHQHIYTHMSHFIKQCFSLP

[3] = Octanol-water partition coefficient, logP of the compound; format: physicochemical
[4] = biological target: Human immunodeficiency virus type 1 protease (Human immunodeficiency virus 1, UniProt Q72874); assay: Inhibition of HIV1 protease
Prolyl endopeptidase = biological target: T1, Prolyl endopeptidase (Homo sapiens, UniProt P48147); assay: Inhibition of POP (unknown origin)
T1 sequence (P48147 whole entry): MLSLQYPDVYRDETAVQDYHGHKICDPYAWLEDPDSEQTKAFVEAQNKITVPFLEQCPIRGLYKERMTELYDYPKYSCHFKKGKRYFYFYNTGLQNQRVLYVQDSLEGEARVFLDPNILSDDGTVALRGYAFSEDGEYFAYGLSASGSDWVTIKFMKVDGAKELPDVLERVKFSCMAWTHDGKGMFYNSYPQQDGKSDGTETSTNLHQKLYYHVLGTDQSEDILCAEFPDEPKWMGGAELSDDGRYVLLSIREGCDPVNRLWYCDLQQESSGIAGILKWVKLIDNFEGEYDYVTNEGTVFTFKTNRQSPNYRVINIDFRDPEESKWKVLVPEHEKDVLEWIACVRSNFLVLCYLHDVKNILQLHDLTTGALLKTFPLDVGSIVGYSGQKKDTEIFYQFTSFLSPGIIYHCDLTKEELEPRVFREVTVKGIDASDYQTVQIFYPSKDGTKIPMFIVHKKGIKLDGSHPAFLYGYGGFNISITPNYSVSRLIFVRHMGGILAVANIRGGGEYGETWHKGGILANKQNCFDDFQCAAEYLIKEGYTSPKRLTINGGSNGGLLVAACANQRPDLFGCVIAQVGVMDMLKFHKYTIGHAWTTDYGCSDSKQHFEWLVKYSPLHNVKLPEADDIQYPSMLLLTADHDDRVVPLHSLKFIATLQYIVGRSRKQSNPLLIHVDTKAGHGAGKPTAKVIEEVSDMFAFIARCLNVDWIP

Periplaneta americana [5] = assay: Diuretic activity in Periplaneta americana assessed as hindgut contraction incubated for 5 mins by myotropic assay; format: functional
Periplaneta americana [6] = assay: Diuretic activity in Periplaneta americana assessed as hindgut contraction by measuring maximal response incubated for 5 mins by myotropic assay relative to control; format: functional
Periplaneta americana [7] = assay: Diuretic activity in Periplaneta americana assessed as hindgut contraction by measuring lasting time incubated for 5 mins by myotropic assay; format: functional
[8] = biological target: Neurotensin receptor type 2 (Homo sapiens, UniProt O95665); assay: Inhibition of human NTR2
Sequence of Neurotensin receptor type 2 (O95665 whole entry): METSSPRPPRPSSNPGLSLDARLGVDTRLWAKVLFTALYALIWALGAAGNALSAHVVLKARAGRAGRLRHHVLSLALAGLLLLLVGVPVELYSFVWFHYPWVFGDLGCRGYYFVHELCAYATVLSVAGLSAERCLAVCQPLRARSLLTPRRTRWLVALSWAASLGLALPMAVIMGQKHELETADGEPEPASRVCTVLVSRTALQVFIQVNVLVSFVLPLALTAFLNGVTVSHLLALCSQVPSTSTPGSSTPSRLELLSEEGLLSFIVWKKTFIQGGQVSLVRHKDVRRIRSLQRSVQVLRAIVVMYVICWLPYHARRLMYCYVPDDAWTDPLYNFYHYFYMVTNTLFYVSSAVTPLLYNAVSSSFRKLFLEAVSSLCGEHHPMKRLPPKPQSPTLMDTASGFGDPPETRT

[9] = Oral bioavailability in monkey at 3 mg/kg; format: ADME, organism-based, Macaca mulatta; details: rhesus monkey, in vivo
[10] = Oral bioavailability in rat at 10 mg/kg; format: ADME, organism-based; details: in vivo
[11] = Oral bioavailability in dog at 3 mg/kg; format: ADME, organism-based, Canis lupus familiaris; details: in vivo
[12] = biological target: Angiotensin-converting enzyme (Homo sapiens, UniProt P12821); assay: Inhibition of ACE (unknown origin)
Sequence of Angiotensin-converting enzyme (P12821 whole entry): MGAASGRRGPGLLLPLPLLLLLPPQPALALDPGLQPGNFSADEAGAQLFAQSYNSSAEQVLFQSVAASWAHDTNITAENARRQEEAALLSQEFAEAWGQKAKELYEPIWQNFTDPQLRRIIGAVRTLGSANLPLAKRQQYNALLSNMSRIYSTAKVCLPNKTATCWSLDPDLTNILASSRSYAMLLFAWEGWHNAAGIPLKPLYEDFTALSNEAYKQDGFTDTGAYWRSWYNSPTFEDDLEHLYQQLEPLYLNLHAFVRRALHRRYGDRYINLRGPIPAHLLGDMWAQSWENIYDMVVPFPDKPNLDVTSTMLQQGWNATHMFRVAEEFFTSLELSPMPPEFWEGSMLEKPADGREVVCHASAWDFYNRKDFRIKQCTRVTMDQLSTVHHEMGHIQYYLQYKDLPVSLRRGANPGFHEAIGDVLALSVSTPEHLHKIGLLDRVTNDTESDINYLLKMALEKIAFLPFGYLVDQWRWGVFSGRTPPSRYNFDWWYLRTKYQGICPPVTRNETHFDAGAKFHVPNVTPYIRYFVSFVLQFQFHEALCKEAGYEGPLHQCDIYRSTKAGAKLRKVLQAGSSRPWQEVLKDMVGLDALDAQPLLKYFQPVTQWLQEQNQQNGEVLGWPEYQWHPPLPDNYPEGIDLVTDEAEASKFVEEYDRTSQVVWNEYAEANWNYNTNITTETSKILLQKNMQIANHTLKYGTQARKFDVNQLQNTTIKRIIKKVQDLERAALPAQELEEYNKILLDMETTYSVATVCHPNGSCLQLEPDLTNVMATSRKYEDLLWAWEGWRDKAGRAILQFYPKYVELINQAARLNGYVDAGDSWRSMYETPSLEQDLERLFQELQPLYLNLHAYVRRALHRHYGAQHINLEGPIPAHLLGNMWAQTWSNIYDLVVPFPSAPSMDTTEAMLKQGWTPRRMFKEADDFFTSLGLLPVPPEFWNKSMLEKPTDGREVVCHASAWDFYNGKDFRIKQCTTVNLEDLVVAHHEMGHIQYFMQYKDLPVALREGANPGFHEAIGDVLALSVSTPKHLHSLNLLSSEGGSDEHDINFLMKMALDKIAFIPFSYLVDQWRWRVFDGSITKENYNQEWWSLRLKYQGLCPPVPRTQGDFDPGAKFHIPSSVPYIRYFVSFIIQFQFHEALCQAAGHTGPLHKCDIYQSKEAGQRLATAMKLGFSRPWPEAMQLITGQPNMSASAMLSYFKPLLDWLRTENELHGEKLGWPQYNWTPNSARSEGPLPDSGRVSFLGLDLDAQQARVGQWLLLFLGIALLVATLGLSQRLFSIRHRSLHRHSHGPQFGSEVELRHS

[13] = biological target: T2, Type-1 angiotensin II receptor A (Rattus norvegicus, UniProt P25095); assay: Displacement of [I125I]AngII form AT1 receptor in rat liver membrane incubated for 1.5 hrs by gamma counting method; format: cell membranes
T2 sequence (P25095 whole entry): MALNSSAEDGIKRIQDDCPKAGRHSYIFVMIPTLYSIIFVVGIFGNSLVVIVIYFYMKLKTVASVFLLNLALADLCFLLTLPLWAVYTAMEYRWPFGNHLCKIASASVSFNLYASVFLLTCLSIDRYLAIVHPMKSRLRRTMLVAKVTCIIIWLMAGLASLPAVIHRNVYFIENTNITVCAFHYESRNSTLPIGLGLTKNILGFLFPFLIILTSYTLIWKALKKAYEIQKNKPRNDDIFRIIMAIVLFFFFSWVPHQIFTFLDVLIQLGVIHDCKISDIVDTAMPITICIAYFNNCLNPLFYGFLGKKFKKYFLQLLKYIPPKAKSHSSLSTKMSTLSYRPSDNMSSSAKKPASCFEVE

[14] = biological target: T3, Type-2 angiotensin II receptor (Rattus norvegicus, UniProt P35351); assay: Displacement of [I125I]AngII form AT2 receptor in rat liver membrane incubated for 1.5 hrs by gamma counting method; format: cell membranes
T3 sequence (P35351 whole entry): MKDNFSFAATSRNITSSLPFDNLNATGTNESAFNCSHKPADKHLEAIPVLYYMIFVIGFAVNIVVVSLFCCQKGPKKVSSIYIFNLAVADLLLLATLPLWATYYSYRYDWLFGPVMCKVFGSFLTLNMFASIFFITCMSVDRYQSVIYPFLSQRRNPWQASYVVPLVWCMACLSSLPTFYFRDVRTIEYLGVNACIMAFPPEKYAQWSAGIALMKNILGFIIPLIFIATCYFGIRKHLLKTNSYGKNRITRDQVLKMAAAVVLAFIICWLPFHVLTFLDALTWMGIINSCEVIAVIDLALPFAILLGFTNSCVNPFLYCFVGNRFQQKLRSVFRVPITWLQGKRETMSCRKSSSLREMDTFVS

CC(C)[C@H](Nc1ccc(CNC(=O)[C@@H]2CCCN2C(=O)C[C@H](N)Cc2cc(F)ccc2F)cc1)C(=O)O
half-life [1]: 37.8 min
bioavailability [2]: 1.2%
IC50 (Dipeptidyl peptidase 4): 0.48 nM

O=C(O)[C@@H]1CCCN1C(=O)OCC1c2ccccc2-c2ccccc21
logP [3]: 0.094

CC(C)(C)NC(=O)[C@@H]1CCCN1C(=O)[C@@H](O)[C@H](Cc1ccccc1)NC(=O)[C@H](CC(N)=O)NC(=O)OCc1ccccc1
IC50 [4]: 89 nM

CSC[C@H](NC(=O)COc1cccc2cnccc12)C(=O)N[C@@H](Cc1ccccc1)[C@H](O)C(=O)N1CSC[C@H]1C(=O)NC(C)(C)C
IC50 [4]: 6.5 nM
Ki [4]: 0.74 nM

N#C[C@@H]1CS[C@H]2C[C@H](NC(=O)OCc3ccccc3)C(=O)N12
IC50 (Prolyl endopeptidase): 100000 nM

CC1(C)OC[C@@H](C(=O)N[C@@H](Cc2c[nH]c3ccccc23)C(=O)NCC(N)=O)N1C(=O)[C@H](Cc1ccccc1)NC(=O)[C@@H](N)Cc1ccccc1 (H-FF[X2]WG-NH2)
EC50 (Periplaneta americana [5]): 0.614 nM
Activity (Periplaneta americana [6]): 120.1%
Time (Periplaneta americana [7]): 120 s

CC1(C)SC[C@@H](C(=O)N[C@@H](Cc2c[nH]c3ccccc23)C(=O)NCC(N)=O)N1C(=O)[C@H](Cc1ccccc1)NC(=O)[C@@H](N)Cc1ccccc1 (H-FF[X1]WG-NH2)
EC50 (Periplaneta americana [5]): 0.708 nM
Activity (Periplaneta americana [6]): 100.6%
Time (Periplaneta americana [7]): 108 s

CC(C)(C)NC(=O)[C@@H]1CSCN1C(=O)[C@@H](O)[C@H](Cc1ccccc1)NC(=O)[C@H](CC(N)=O)NC(=O)COc1cccc2ccccc12
IC50 [4]: 8.8 nM

CC[C@H](C)[C@H](NC(=O)[C@H](Cc1ccc(O)cc1)NC(=O)[C@@H]1C[Si](C)(C)CN1C(=O)[C@H](CCCCN)NC(=O)[C@@H](N)CCCCN)C(=O)N[C@@H](CC(C)C)C(=O)O
IC50 [8]: 5 nM

CC(C)[C@H](Nc1ccc(CNC(=O)[C@@H]2CSCN2C(=O)C[C@H](N)Cc2cc(F)ccc2F)cc1)C(=O)O
IC50 (Dipeptidyl peptidase 4): 0.3 nM
bioavailability [9]: < 2.5%
bioavailability [10]: < 2.5%
bioavailability [11]: < 2.5%

C[C@H](CS)C(=O)N1CSC[C@H]1C(=O)O
IC50 [12]: 372 nM

CC(C)C[C@H](NC(=O)[C@H](CCCNC(=N)N)NC(=O)[C@@H](N)CC(=O)O)C(=O)N[C@@]1(Cc2ccc(O)cc2)CC(=O)N2[C@H](C(=O)N[C@@H](Cc3c[nH]cn3)C(=O)N3CCC[C@H]3C(=O)N[C@@H](Cc3ccccc3)C(=O)O)CS[C@@H]21 (H-DRL[X4]HPF-OH)
Ki [13]: > 10000 nM
Ki [14]: 3.7 nM
